For orientation: EC50 means the concentration giving half of the maximal effect. One may read the IC50 as the concentration that gives 50% inhibition. In general, inhibition refers to the percentage by which the read-out fell short of the control.

The subject of data set [1] is rice d10 mutant. The experiment in a line: Rice micro tillering bioassay (d10 mutant, hydroponic). As to conditions: for number of tillers per plant: SL-deficient d10 mutant, hydroponic, twice a week up to 3 weeks, untreated d10 six tillers; for inhibition at 2.5 µM: Oryza sativa, read-out: tillering inhibition. The class given is in vivo. The method, then:
Rice seeds (d10) were sterilized with 2.5% sodium hypochlorite for 15 min. After thorough washing with sterile MilliQ water, the seeds were kept in water for 2 days at 30°C in the dark for imbibition and pre-germination. The pre-germinated seeds were then transferred to moist filter paper in 90-mm petri plates and incubated at 30°C overnight. The plates with germinated seeds were then shifted in a growth cabinet with fluorescent white light (130–180 μM m^−2 s^−1) for 1 week. Seven days-old seedlings were moved to 50-ml falcon tubes (one seedling per tube) containing modified half-strength Hoagland nutrient solution in greenhouse. After 1 week, rice plants were treated with 2.5 μM of each SL analog. Mock and GR24 (2.5 μM) were included as control treatments. Six applications of each SL analog were done two times in a week. After 3 weeks of application, number of tillers per plant, plant height, and fresh biomass were measured at final harvest.

The test system of data set [2] is Arabidopsis seedlings. As to the kind of experiment: Arabidopsis hypocotyl elongation assay. The class given is in vivo. The settings on record: compared to control seedlings; for inhibition of hypocotyl growth (reduction in hypocotyl length): 1.0 μM. The method, then:
(§1) The sterilized Arabidopsis seeds were grown in petri plates that were first kept at 4°C in darkness for 3 days. For hypocotyl study, the petri plates were exposed to continuous white light for 24 h, then transferred to continuous monochromatic red light (20 μmol m^−2 s^−1, 22°C) conditions for another 4 days. For lateral root density, the plates were vertically grown at 22°C in Percival incubator under long day conditions (16 h at 22°C/8 h at 16°C day/night, 60% relative humidity, 60–70 μmol m^−2 s^−1 white light) for 8 days. After scanning, the hypocotyl length and number of lateral roots were recorded using publicly available ImageJ software.^1

For data set [3], the system named is Arabidopsis seedlings. As to the kind of experiment: Arabidopsis lateral root density assay. The class given is in vivo. As to conditions: compared to control seedlings; for inhibition of lateral root density: 1.0 μM. The method, then: as §1
Data set [4] has as its system S. hermonthica seeds. As to the kind of experiment: Parasitic seed germination bioassay, Striga. The class given is in vivo, Striga hermonthica. As to conditions: for Striga germination rate: 1.0 μM, formulated and non-formulated, 24 h at 30°C; for EC50: Striga hermonthica.
Protocol: (§3) Germination activity of SL analogs on S. hermonthica and P. aegyptiaca seeds was tested by following the procedure described before ([Jamil et al., 2012]). The preconditioned Striga and Phelipanche seeds were treated with 50 μl of each SL analog solution at a concentration range (10^−5–10^−12 M). GR24 and sterile MilliQ water were included as positive and negative controls, respectively. The treated seeds were allowed to germinate in the dark for 24 h at 30°C (for Striga) and for 1 week at 25°C (for Phelipanche). The germinated and non-germinated seeds were counted under a binocular microscope, and germination rate (in %) was calculated.
(§4) Collected data were analyzed statistically using statistical software package R (version 3.2.2).
The subject of data set [5] is P. aegyptiaca seeds. As to the kind of experiment: Parasitic seed germination bioassay, Phelipanche. The class given is in vivo, Phelipanche aegyptiaca. The settings on record: for EC50: Phelipanche aegyptiaca; for P. aegyptiaca germination rate: non-formulated, 1.0 μM, 1 week at 25°C.
Protocol: as §3, §4
The test system of data set [6] is Striga seeds. As to the kind of experiment: Stability of formulated SL analogs in sand (Striga germination readout). The class given is physicochemical, Striga hermonthica. The settings on record: 1.0 μM; for Striga seed germinating activity before incubation in sand: no incubation. The protocol: The stability of formulated SL analogs was further tested in sand culture. About 1.5 ml of silver sand was added in each of 6 wells of 24-well plates. Then, 800 μl of formulated SL analogs (1.0 μM) was added in each of the six wells. The plates were sealed firmly with para-film, wrapped in aluminum foil, and placed at 30°C from day 1 to day 7. After 7 days, glass fiber discs containing preconditioned Striga seeds were placed on the top of each of the six wells and incubated in the dark at 30°C for 24 h. The germinated and non-germinated seeds were counted from each disc. In addition, the viability of formulated SL analogs was also tested in aqueous solution for 7 weeks at 30°C. About 800-μl aqueous solution of formulated SL analogs (1.0 μM) was added in a black Eppendorf tube weekly up to 6 weeks and incubated at 30°C. On the seventh week, about 50 μl of each analog was applied on a glass fiber disc containing preconditioned Striga seed and put again in the dark in sealed petri plates at 30°C for 24 h. Germinated and non-germinated seeds were counted from each disc.

Data set [7] has as its target T1, ShHTL7 (Striga hermonthica, UniProt A0A0M3PNA2).
T1 sequence (A0A0M3PNA2 1-271): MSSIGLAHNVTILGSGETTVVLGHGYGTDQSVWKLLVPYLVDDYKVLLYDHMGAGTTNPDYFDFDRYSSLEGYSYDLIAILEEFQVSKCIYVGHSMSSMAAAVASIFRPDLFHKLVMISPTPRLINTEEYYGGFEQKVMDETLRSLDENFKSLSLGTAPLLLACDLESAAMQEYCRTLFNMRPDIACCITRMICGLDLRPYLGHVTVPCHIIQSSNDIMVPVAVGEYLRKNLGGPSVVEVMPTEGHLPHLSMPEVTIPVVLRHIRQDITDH
The experiment in a line: In vitro YLG hydrolysis competition assay, ShHTL7. The class given is biochemical. As to conditions: 3.0 μM protein, 1.0 μM YLG, 60 min, room temperature; read-out: IC50, competitive inhibition of ShHTL7-mediated YLG hydrolysis. The protocol:
(§2) Protein expression and purification of ShHTL7 and Oryza sativa D14 (OsD14) was carried out according to the procedure described earlier ([Jamil et al., 2018]). In vitro Yoshimulactone Green (YLG) hydrolysis assays ([Tsuchiya et al., 2015]) were carried out using 3.0 μM of protein ShHTL7 and OsD14 in a reaction buffer (1X PBS buffer, pH 7.3) with 0.1% DMSO at a 100-μl volume on a 96-well black plate (Greiner). For competitive assays, rac-GR24, AR8, MP13, and MP26 (at range between 0.01 and 50 μM) were co-incubated with 1.0 μM of YLG (Tokyo Chemical Industry Co. Ltd., product number E1238) for 60 min at room temperature. Fluorescent intensity was measured by spectraMax i5 (Molecular Devices) at excitation by 480 nm and detection by 520 nm. The change in fluorescence observed over the course of 1 h of YLG in buffer without protein was subtracted from the data collected in presence of protein. IC50 values were calculated by GraphPad (Prism 7).

Data set [8] deals with T2, OsD14 (Oryza sativa subsp. japonica, UniProt Q10QA5).
T2 construct: made in house
T2 sequence (Q10QA5 1-318): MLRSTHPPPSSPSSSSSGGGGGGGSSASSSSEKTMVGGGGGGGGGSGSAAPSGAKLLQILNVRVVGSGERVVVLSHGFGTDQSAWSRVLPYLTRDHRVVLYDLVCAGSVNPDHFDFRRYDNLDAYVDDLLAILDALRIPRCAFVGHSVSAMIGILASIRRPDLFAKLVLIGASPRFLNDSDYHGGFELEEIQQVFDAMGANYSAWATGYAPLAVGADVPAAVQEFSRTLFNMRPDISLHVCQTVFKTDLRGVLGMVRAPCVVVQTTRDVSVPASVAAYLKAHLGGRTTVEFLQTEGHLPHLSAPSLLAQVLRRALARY
The experiment in a line: In vitro YLG hydrolysis competition assay, OsD14. The class given is biochemical. The protocol: as §2

Where [9] appears, read: read-out: EC50 Striga seed germination, formulated.
Setting [10] is: read-out: EC50 Striga seed germination, non-formulated.
Where [11] appears, read: read-out: EC50 P. aegyptiaca seed germination, formulated.
Where [12] appears, read: read-out: EC50 P. aegyptiaca seed germination, non-formulated.

Molecules are shown by their SMILES. Like-named read-outs stand apart in the source and are kept apart here.

`CC1=C(C)C(O/C=C(\C)C=O)OC1=O` (stereo not shown) [AR8, reference compound]: the “number of tillers per plant” value in data set [1] (2.5 μM) is 5.6 tillers per plant. Further, the “inhibition of hypocotyl growth (reduction in hypocotyl length)” value in data set [2] is reported as “did not lead to a significant effect”. The “inhibition of lateral root density” value in data set [3] is on record as “did not lead to a significant effect”. Besides, in data set [4], the Striga germination rate is 9%. For the same molecule, the EC50 came out at 990 nM in data set [4] (setting [9]), 690000 nM in data set [4] (setting [10]), 320 nM in data set [5] (setting [11]) and 970 nM in data set [5] (setting [12]). Further, the “P. aegyptiaca germination rate” value in data set [5] worked out at 32%. The “Striga seed germinating activity after 1 day in sand” value in data set [6] (sand, 30°C) is “completely lost its ability to induce Striga germination”. Further, the IC50 in data set [7] came out at 6900 ± 970 nM; in data set [8] it was 4870 ± 780 nM.

For the molecule `CC1=CC(O/C=C(\C)C=O)OC1=O` (stereo not shown) [MP13, (E)-2-methyl-3-[(4-methyl-5-oxo-2,5-dihydrofuran-2-yl)oxy]acrylaldehyde], the inhibition at 2.5 µM in data set [1] came to 23%. The “number of tillers per plant” value in data set [1] (2.5 μM) is reported as 4.5 tillers per plant. In addition, the “inhibition of hypocotyl growth (reduction in hypocotyl length)” value in data set [2] is “did not lead to a significant effect”. Also, the “inhibition of lateral root density” value in data set [3] was “did not lead to a significant effect”. Also, the Striga germination rate in data set [4] is given as 37–70%. For the same molecule, the half-maximal effective concentration (EC50) in data set [4] (setting [9]) turned out to be 110 nM; in data set [4] (setting [10]), 640 nM; in data set [5] (setting [11]), 250 nM; in data set [5] (setting [12]) it was 32 nM. In addition, in data set [5], the “P. aegyptiaca germination rate” value is “around 68%”. For the same molecule, the “Striga seed germinating activity before incubation in sand” value in data set [6] is “around 60%”. Moreover, the “Striga seed germinating activity after 1 day in sand” value in data set [6] (sand, 30°C) was 10%. Further, in data set [6] (sand, 30°C, 2 days), the “Striga seed germinating activity after 2 days in sand” value was “complete loss of the activity”. In addition, the IC50 in data set [7] turned out to be 3870 ± 900 nM; in data set [8], 3450 ± 1200 nM.

On to `COC(=O)/C=C/C(C)=C/OC1C=C(C)C(=O)O1` (stereo not shown) [MP26, (2E,4E)-methyl 4-methyl-5-(4-methyl-5-oxo-2,5-dihydrofuran-2-yloxy)penta-2,4-dienoate], for which the inhibition at 2.5 µM in data set [1] amounted to 57%. Besides, in data set [1] (2.5 μM), the “number of tillers per plant” value came to 2.5 tillers per plant. Besides, the “plant height compared to mock” value in data set [1] (d10 mutant, 2.5 μM) is listed as “significant increase in plant height”. For the same molecule, the inhibition at 1 µM in data set [2] (Arabidopsis thaliana, read-out: inhibition of hypocotyl growth (reduction in hypocotyl length)) came to 15%; in data set [3] (Arabidopsis thaliana) it was 43%. In addition, the Striga germination rate in data set [4] is given as 37–70%. For the same molecule, the EC50 is 98 nM in data set [4] (setting [9]), 350 nM in data set [4] (setting [10]), 99 nM in data set [5] (setting [11]) and 520 nM in data set [5] (setting [12]). Moreover, the “P. aegyptiaca germination rate” value in data set [5] is “around 68%”. In addition, the “Striga seed germinating activity before incubation in sand” value in data set [6] is reported as “around 60%”. In data set [6] (sand, 30°C), the “Striga seed germinating activity after 1 day in sand” value came to 27%. In addition, the “Striga seed germinating activity after day 3 in sand” value in data set [6] (sand, 30°C, after day 3) is given as “not detectable”. The concentration for half-maximal inhibition (IC50) in data set [7] was determined as 5300 ± 710 nM; in data set [8] it was 2070 ± 800 nM.
